Test results: patent US20020136711A1, “Compositions used in human treatment” (priority 1998, published 2002)

Tests used:
[1] = test system: skin flushing or rash; conditions: larger doses of niacin
From the text: Typically, the form of niacin used may produce a flushing, redness or rash to the skin when consumed in large doses. […] Inositol is molecularly bonded to niacin, and in conjunction therewith serves to slow the absorption of nicotinic acid.

[2] = clinical trials: absorbability of chelated potassium; format: in vivo, human; conditions: potassium bonded or chelated with an amino acid or a simple sugar
From the text: A preferred aspect of the present invention is the administering of potassium when bonded or chelated with an amino acid or a simple sugar.

For O=C(O[C@H]1[C@H](OC(=O)c2cccnc2)[C@@H](OC(=O)c2cccnc2)[C@H](OC(=O)c2cccnc2)[C@@H](OC(=O)c2cccnc2)[C@H]1OC(=O)c1cccnc1)c1cccnc1 [niacin inositol hexanicotinate], the “side-effects (flushing, redness or rash to the skin) at larger doses” value [1] was “no side-effects”.
For O=C([O-])[C@H](O)[C@@H](O)[C@H](O)[C@H](O)CO.[K+] [potassium gluconate], the “absorbability and assimilation into the bloodstream” value [2] was “better absorbability and assimilation into the bloodstream”.
